US20080261929A1, “COMBINATION OF PROGESTERONE-RECEPTOR ANTAGONIST TOGETHER WITH AN AROMATASE INHIBITOR FOR USE IN BRCA MEDIATED DISEASES” (priority 2007, published 2008)
Like-named read-outs stand apart in the source and are kept apart here.

Legend:
[1] = administered orally; cited from earlier work
mammary tumors = conditions: mice with rodent BRCA1- or BRCA2 inactivated in mammary glands; Poole et al., Science 2006; cited from earlier work
progesterone receptor [2] = molecular target: T1, progesterone receptor (Homo sapiens, UniProt P06401); conditions: cited from earlier work
T1 sequence (P06401 1-933): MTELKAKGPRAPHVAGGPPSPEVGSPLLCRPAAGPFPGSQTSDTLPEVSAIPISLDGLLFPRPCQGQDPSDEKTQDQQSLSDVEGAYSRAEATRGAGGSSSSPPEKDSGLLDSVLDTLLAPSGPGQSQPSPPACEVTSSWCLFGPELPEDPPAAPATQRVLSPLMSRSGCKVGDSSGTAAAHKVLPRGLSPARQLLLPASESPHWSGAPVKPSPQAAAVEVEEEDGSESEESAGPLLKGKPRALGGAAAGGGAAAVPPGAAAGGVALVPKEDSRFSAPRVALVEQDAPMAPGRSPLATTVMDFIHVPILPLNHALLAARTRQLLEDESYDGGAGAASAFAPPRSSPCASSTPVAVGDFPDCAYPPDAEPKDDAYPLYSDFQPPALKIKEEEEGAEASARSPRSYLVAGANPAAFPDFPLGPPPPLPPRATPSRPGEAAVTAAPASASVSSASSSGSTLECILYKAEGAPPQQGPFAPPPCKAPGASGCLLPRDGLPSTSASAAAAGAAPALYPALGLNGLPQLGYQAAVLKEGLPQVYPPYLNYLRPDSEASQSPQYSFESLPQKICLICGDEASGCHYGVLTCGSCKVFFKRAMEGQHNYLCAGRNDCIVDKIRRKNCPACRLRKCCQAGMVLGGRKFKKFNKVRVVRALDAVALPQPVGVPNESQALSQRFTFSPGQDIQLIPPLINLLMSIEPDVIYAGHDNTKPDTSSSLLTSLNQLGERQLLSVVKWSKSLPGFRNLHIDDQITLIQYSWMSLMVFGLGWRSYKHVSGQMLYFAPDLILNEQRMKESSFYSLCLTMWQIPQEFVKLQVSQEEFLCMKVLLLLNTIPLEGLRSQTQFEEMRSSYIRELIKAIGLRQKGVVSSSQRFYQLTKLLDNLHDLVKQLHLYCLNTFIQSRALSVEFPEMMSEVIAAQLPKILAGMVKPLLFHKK

tumor cells = assay: Apoptosis of tumor cells
progesterone receptor [3] = molecular target: T1, progesterone receptor; assay: Progesterone receptor protein expression/stability after siRNA knock down of BRCA1 (Example 1); type: cell-based
Experimental: MCF-7 and T47D mammary cells were stabely transfected with the aromatse gene. These cells grow with androstenedione stimulus. These cells were treated with siRNA knocking down the BRCA1 and BRCA2 gene.
In a second step cells were stimulated either with progesterone and/or with androstenedione. […] The effects on progesterone receptor protein expression were further investigated.

progesterone receptor [4] = molecular target: T1, progesterone receptor; assay: Progesterone receptor protein expression/stability after knock down of BRCA1 (Example 3)
Source text: MCF-7 and T47D mammary cells stabely transfected with the aromatse gene. These cells grow with androstenedione stimulus in vivo. These cells were stabely transfected with shRNA knocking down the BRCA1 and BRCA2 gene. Cell growth in vivo in comparison to untransfected and mock transfected cells was compared. In a second step cells were implanted in immunodeficient nude mice and stimulated either with progesterone and/or with androstenedione. […] The effects on progesterone receptor protein expression were further investigated.

Row | Effect on increased stability of progesterone receptor after BRCA1 knock down (progesterone receptor [3]) | Effect on increased stability of progesterone receptor after BRCA1 knock down (progesterone receptor [4]) | Structure (SMILES) | Bioavailability [1] | Development of mammary tumors (mammary tumors) | Antiprogestagenic activity (progesterone receptor [2]; Fuhrmann et al., J. Med. Chem. 2000) | Other endocrinological (side) effects, e.g. androgen, estrogen or antiglucocorticoid activity (progesterone receptor [2]) | Other endocrinological (side) effects, e.g. androgen, estrogen or antiglucocorticoid activity (progesterone receptor [2]; listed as ZK230211) | Apoptosis of tumor cells (tumor cells)
1 |  |  | CC#C[C@]1(O)CC[C@H]2[C@@H]3CCC4=CC(=O)CCC4=C3[C@@H](c3ccc(N(C)C)cc3)C[C@@]21C [mifepristone] | poor bioavailability | blocks the development of mammary tumors |  |  |  | 
2 | could be antagonized | could be antagonized | CC(=O)c1ccc([C@H]2C[C@@]3(C)[C@@H](CC[C@@]3(O)C(F)(F)C(F)(F)F)[C@@H]3CCC4=CC(=O)CCC4=C32)cc1 [11β-(4-acetylphenyl)-17β-hydroxy-17α-(1,1,2,2,2-pentafluoroethyl)-estra-4,9-dien-3-one] |  |  | high antiprogestagenic activity | only very weak or no endocrine side effects | little or no other endocrinological effects | increased apoptosis of tumor cells
